These results are taken from publication PMC9970282 (Nature chemical biology, 2022).

What all share (experiment): Competitive kinase engagement in mouse spleen with probe 3 as occupancy probe
Holding throughout (type): in vivo, mice

One experiment addresses CDK5 (Mus musculus, UniProt P49615). As to conditions: 50 mg/kg oral, probe 3 10 mg/kg s.c., 1 h, p < 0.05.
A further experiment has as its target CDK17 (Mus musculus, UniProt Q8K0D0). As to conditions: 50 mg/kg oral, probe 3 10 mg/kg s.c., 1 h, p < 0.05.
A further experiment has as its target CDK2 (Mus musculus, UniProt P97377). The following applies: 50 mg/kg oral.

Molecules are shown by their SMILES.

Chain of CDK5 (P49615 whole entry): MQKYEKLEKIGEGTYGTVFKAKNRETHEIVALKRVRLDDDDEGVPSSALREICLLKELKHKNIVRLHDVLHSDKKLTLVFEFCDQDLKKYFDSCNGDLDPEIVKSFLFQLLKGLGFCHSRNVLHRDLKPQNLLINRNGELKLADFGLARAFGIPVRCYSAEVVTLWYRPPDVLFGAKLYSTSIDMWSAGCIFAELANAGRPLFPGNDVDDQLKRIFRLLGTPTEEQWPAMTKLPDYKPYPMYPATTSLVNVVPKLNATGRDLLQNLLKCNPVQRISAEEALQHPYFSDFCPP
Chain of CDK17 (Q8K0D0 whole entry): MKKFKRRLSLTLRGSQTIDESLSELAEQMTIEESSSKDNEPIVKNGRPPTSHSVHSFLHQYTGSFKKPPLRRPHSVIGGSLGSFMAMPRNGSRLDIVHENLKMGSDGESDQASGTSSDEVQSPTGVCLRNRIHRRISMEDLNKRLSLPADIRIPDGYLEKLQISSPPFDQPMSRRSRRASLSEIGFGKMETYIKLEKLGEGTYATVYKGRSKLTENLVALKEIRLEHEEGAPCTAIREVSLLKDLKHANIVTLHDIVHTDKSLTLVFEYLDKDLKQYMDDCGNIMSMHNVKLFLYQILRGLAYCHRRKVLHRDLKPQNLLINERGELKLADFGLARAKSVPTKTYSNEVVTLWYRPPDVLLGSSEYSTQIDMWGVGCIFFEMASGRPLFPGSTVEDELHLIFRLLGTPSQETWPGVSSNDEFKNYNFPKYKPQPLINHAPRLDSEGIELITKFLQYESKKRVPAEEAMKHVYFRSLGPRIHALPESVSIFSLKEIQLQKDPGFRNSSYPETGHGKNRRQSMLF

In the case of `C[C@@]1(O)CCC[C@H]1n1c(=O)c(C(F)F)cc2cnc(NC3CCN(S(C)(=O)=O)CC3)nc21` [PF-06873600], the “log2 FC of enrichment by probe 3, PF-06873600 vs. vehicle” value at CDK5 is “~ –1”; on CDK17, “< –2”; at CDK2 (mouse spleen, probe 3 10 mg/kg s.c., 1 h, p < 0.05), “< –2”. For the same molecule, the “estimated occupancy of CDK2 in spleen tissue” value at CDK2 (mice, based on competition with probe 3) is greater than 80%.
